Measured values reported in the NIST ThermoML archive (doi:10.1021/je8001267).

Conditions: Liquid, Closed cell (Static) method

N [ammonia]
Conditions | vapor or sublimation pressure [kPa]
303.12 K | 1166
313.14 K | 1553
323.16 K | 2030
333.13 K | 2609
343.13 K | 3305
353.13 K | 4132
363.12 K | 5105
373.16 K | 6243
